ChEMBL document CHEMBL1130823, “New tetrahydronaphthalene derivatives as combined thromboxane receptor antagonists and thromboxane synthase inhibitors” (Bioorg Med Chem Lett, 1998)

How the values were obtained:
Homo sapiens = species: Homo sapiens; test: Inhibitory concentration required for the inhibition of U-46,619 induced aggregation of human platelets.; format: functional
Oryctolagus cuniculus = species: Oryctolagus cuniculus; test: Inhibition of U-46,619 induced contraction of isolated rabbit saphenous vein.; format: functional; details: read-out: pA2 (converted)
Thromboxane-A synthase = molecular target: T1, Thromboxane-A synthase (Homo sapiens, UniProt P24557); test: Anti-synthetase activity against TXA2 synthase in human whole blood assay; format: tissue-based
T1 sequence (P24557 whole entry): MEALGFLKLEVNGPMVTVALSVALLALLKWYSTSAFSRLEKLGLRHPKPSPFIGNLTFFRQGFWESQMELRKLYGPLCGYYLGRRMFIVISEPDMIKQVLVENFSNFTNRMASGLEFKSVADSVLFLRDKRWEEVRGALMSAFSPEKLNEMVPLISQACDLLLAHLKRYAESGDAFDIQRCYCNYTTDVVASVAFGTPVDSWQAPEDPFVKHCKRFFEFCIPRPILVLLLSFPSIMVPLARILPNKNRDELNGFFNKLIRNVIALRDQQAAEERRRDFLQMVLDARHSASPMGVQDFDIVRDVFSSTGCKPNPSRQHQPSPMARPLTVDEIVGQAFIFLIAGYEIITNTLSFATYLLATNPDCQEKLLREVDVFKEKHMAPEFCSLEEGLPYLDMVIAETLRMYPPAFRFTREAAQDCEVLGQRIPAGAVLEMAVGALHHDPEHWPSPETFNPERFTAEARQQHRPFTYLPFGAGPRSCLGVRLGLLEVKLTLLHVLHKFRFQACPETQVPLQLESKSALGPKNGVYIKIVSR

Row | Structure (SMILES) | IC50 (Homo sapiens) | IC50 (Thromboxane-A synthase) | Kb (Oryctolagus cuniculus)
1 | O=C(O)CCC/C=C\c1cc(Cc2cccnc2)cc2c1CCC(NS(=O)(=O)c1ccc(Cl)cc1)C2 (stereo not drawn) | 90 nM | 4200 nM | 2.51 nM
2 | O=C(O)CCc1cc(-c2cccnc2)cc2c1CCC(NS(=O)(=O)c1ccc(Cl)cc1)C2 (stereo not drawn) | 670 nM | > 5000 nM | 12.6 nM
3 | O=C(O)CCc1c2c(cc(Cc3cccnc3)c1-c1ccccc1)CC(NS(=O)(=O)c1ccc(Cl)cc1)CC2 (stereo not drawn) | 180 nM | > 10000 nM | 0.794 nM
4 | Cc1c(Cc2cccnc2)cc2c(c1CCC(=O)O)CCC(NS(=O)(=O)c1ccc(Cl)cc1)C2 (stereo not drawn) | 610 nM | 850 nM | 158 nM
5 | Cc1c(Cc2cccnc2)cc2c(c1/C=C\CCCC(=O)O)CCC(NS(=O)(=O)c1ccc(Cl)cc1)C2 (stereo not drawn) | 1000 nM | 960 nM | 10 nM
6 | O=C(O)CC/C=C/c1c(Cc2cccnc2)ccc2c1CCC(NS(=O)(=O)c1ccc(Cl)cc1)C2 (stereo not drawn) | 47 nM | 1400 nM | 0.00794 nM
7 | O=C(O)CCc1cc(Cc2cccnc2)cc2c1CCC(NS(=O)(=O)c1ccc(Cl)cc1)C2 (stereo not drawn) | 7 nM | 1100 nM | 0.2 nM
8 | O=C(O)CCC/C=C/c1c(Cc2cccnc2)ccc2c1CCC(NS(=O)(=O)c1ccc(Cl)cc1)C2 (stereo not drawn) | 450 nM | 1100 nM | 1.26 nM
9 | O=C(O)CC/C=C/c1cc(Cc2cccnc2)cc2c1CCC(NS(=O)(=O)c1ccc(Cl)cc1)C2 (stereo not drawn) | 9 nM | > 10000 nM | 0.398 nM

Further compounds by falling IC50 (Homo sapiens), results first:

Row | IC50 (Homo sapiens) | IC50 (Thromboxane-A synthase) | Structure (SMILES) | Kb (Oryctolagus cuniculus)
10 | 1200 nM | > 5000 nM | O=C(O)CCC/C=C/c1cc(Cc2cccnc2)cc2c1CCC(NS(=O)(=O)c1ccc(Cl)cc1)C2 (stereo not drawn) | 2 nM
11 | 460 nM | 2900 nM | Cc1c(Cc2cccnc2)cc2c(c1/C=C/CCCC(=O)O)CCC(NS(=O)(=O)c1ccc(Cl)cc1)C2 (stereo not drawn) | 7.94 nM
12 | 270 nM | 6600 nM | CCCCCc1c(Cc2cccnc2)cc2c(c1CCC(=O)O)CCC(NS(=O)(=O)c1ccc(Cl)cc1)C2 (stereo not drawn) | 1.58 nM
13 | 160 nM | 350 nM | O=C(O)CCC/C=C\c1c(Cc2cccnc2)ccc2c1CCC(NS(=O)(=O)c1ccc(Cl)cc1)C2 (stereo not drawn) | 0.2 nM
14 | 140 nM | > 10000 nM | O=C(O)CCc1c(-c2cccnc2)ccc2c1CCC(NS(=O)(=O)c1ccc(Cl)cc1)C2 (stereo not drawn) | 0.2 nM
15 | 63 nM | 640 nM | CCCc1c(Cc2cccnc2)cc2c(c1CCC(=O)O)CCC(NS(=O)(=O)c1ccc(Cl)cc1)C2 (stereo not drawn) | 3.98 nM
16 | 20 nM | > 10000 nM | O=C(O)CCc1c(Cc2cccnc2)ccc2c1CCC(NS(=O)(=O)c1ccc(Cl)cc1)C2 (stereo not drawn) | 0.316 nM
